Format in all cases: in vivo
Assay [1] relates to brown planthopper (Nilaparvata lugens). Kind of assay: Nilaparvata lugens spray test. Conditions: 96 h, 500 g/ha, rice plants, after 4 days. On the procedure: Nilaparvata lugens—Spray Test
(§1) Solvent: 78.0 parts by weight of acetone • • 1.5 parts by weight of dimethylformamide
(§2) Emulsifier: alkylarylpolyglycol ether
To produce a suitable preparation of active compound, 1 part by weight of active compound is mixed with the stated amount of solvents and is diluted with water, containing an emulsifier concentration of 1000 ppm, to the desired concentration. Further test concentrations are prepared by dilution with emulsifier containing water.
Rice plants (Oryza sativa) are sprayed with a preparation of the active ingredient of the desired concentration and the plants are infested with the brown planthopper (Nilaparvata lugens).
After 4 days mortality in % is determined. 100% means all planthoppers have been killed and 0% means none of the planthoppers have been killed.

Assay [2] has as its system adult cat fleas (Ctenocephalides felis). Description: Ctenocephalides felis in-vitro contact test, adult cat flea. The conditions noted are these: after 48 hours, read-out: efficacy (fleas dead or moribund); for pest or weed control at 1 µg/cm2, 100 g/ha: 1 μg/cm^2 (=100 g/ha); for pest or weed control at 5 µg/cm2, 500 g/ha: 5 μg/cm^2 (=500 g/ha). The essentials: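 Acetone solution coated onto glass tube walls; 900 ppm gives 5 μg/cm². Once dry, 5–10 adult fleas per tube held at room temperature for 48 h. Efficacy (%) is the share of fleas dead or moribund, i.e. unable to climb away on a 45–50° C heating plate.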

Assay [3] deals with larvae of the southern green stink bug (Nezara viridula). Kind of assay: Nezara viridula spray test. Conditions: 96 h, 500 g/ha, barley plants, after 4 days. The method, then: Nezara viridula—Spray Test
as §1, §2
To produce a suitable preparation of active compound, 1 part by weight of active compound is mixed with the stated amount of solvent, and the concentrate is diluted with water, containing an emulsifier concentration of 1000 ppm, to the desired concentration. Further test concentrations are prepared by dilution with emulsifier containing water.
Barley plants (Hordeum vulgare) infested with larvae of the southern green stink bug (Nezara viridula) are sprayed with a test solution containing the desired concentration of the active ingredient.
After 4 days mortality in % is determined. 100% means all the stink bugs have been killed; 0% means none of the stink bugs have been killed.

Assay [4] concerns fall armyworm larvae (Spodoptera frugiperda). Kind of assay: Spodoptera frugiperda spray test. Conditions: 168 h, maize leaf sections, after 7 days. A digest of the protocol: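 Percent larval kill read at day 7, from 0% (no caterpillars dead) to 100% (all dead). Larvae were placed on dried Zea mays leaf discs previously sprayed with test preparations made from an acetone/DMF solution diluted in 1000 ppm emulsifier-containing water.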

Assay [5] concerns larvae of the banded cucumber beetle (Diabrotica balteata). Description: Diabrotica balteata spray test. The conditions noted are these: 168 h, after 7 days, read-out: efficacy (seedling growth); for pest or weed control at 6.4 µg/disc, 20 g/ha: 20 g/ha (=6.4 μg/well); for pest or weed control at 32 µg/disc, 100 g/ha: 100 g/ha (=32 μg/well). A digest of the protocol:
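Efficacy was read 7 days after infesting each unit with 10–20 banded cucumber beetle larvae, as % of seedlings growing like untreated, uninfested controls. Before infestation, wheat seeds germinated 1 day on agar (5 per well) were sprayed with the active ingredient. The active was formulated in acetone/DMF and diluted in water containing emulsifier.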

Assay [6] relates to adult brown dog ticks (Rhipicephalus sanguineus). Description: Rhipicephalus sanguineus in-vitro contact test, adult brown dog ticks. The conditions noted are these: 48 h, after 48 hours, read-out: efficacy (ticks dead or moribund); for pest or weed control at 5 µg/cm2, 500 g/ha: 5 μg/cm^2 (=500 g/ha); for pest or weed control at 1 µg/cm2, 100 g/ha: 1 μg/cm^2 (=100 g/ha). A digest of the protocol:
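Acetone solution coated on glass tube inner walls (900 ppm, giving 5 μg/cm^2); after drying, 5–10 adult ticks added and kept 48 h at room temperature. Efficacy scored as percent dead or moribund, i.e., ticks unable to climb away on a 45–50 °C heating plate within 5 min.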

Assay [7] has as its system Rhipicephalus (Boophilus) microplus larvae (strain Parkhurst, resistant against synthetic pyrethroids). Kind of assay: Rhipicephalus (Boophilus) microplus in-vitro contact test, larval cattle tick. The conditions noted are these: after 48 hours, read-out: efficacy (larvae dead or moribund); for pest or weed control at 1 µg/cm2, 100 g/ha: 1 μg/cm^2 (=100 g/ha); for pest or weed control at 5 µg/cm2, 500 g/ha: 5 μg/cm^2 (=500 g/ha). A digest of the protocol:
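Pyrethroid-resistant larvae (strain Parkhurst), 20–50 per tube, exposed by contact to a dried acetone film of compound (5 μg/cm² at 900 ppm) for 48 h at 27 °C and 85% humidity. Percent dead or moribund larvae scored from negative geotactic behaviour.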

In assay [8] the test system is southern root-knot nematode (Meloidogyne incognita). Description: Meloidogyne incognita test. Conditions: 20 ppm, after 14 days. On the procedure: Meloidogyne incognita—Test
Solvent: 125.0 parts by weight of acetone
To produce a suitable preparation of active compound, 1 part by weight of active compound is mixed with the stated amount of solvent, and the concentrate is diluted with water to the desired concentration.
Vessels are filled with sand, a solution of the active ingredient, a suspension containing eggs and larvae of the southern root-knot nematode (Meloidogyne incognita) and salad seeds. The salad seeds germinate and the seedlings grow. Galls develop in the roots.
After 14 days the nematicidal activity is determined based on the percentage of gall formation. 100% means no galls were found and 0% means the number of galls found on the roots of the treated plants was equal to that in untreated control plants.

Assay [9] concerns adult engorged female ticks (Rhipicephalus microplus). Kind of assay: Rhipicephalus (Boophilus) microplus injection test. The conditions noted are these: 168 h, 4 μg/animal, egg deposition after 7 days, read-out: efficacy (infertile eggs). On the procedure:
Rhipicephalus (Boophilus) microplus—Injection Test
Solvent: dimethyl sulfoxide
To produce a suitable preparation of active compound, 10 mg of active compound are dissolved in 0.5 mL solvent, and the concentrate is diluted with solvent to the desired concentration.
Five adult engorged female ticks (Rhipicephalus microplus) are injected with 1 μL compound solution into the abdomen. The ticks are transferred into replica plates and incubated in a climate chamber.
After 7 days egg deposition of fertile eggs is monitored. Eggs where fertility is not visible are stored in a climate chamber till hatching after about 42 days. An efficacy of 100% means all eggs are infertile; 0% means all eggs are fertile.

SMILES strings stand for the structures.

The term mortality denotes the percentage killed. `CCN(C)C(=O)c1cnc(-c2nccnc2C(C)N(CC2CC2)C(=O)c2cc(C(F)(F)F)cc(C(F)(F)F)c2)s1` (racemic) [Example I-83, (rac)-2-{3-[1-{[3,5-Bis(trifluoromethyl)benzoyl](cyclopropylmethyl)amino}ethyl]pyrazin-2-yl}-N-ethyl-N-methyl-1,3-thiazole-5-carboxamide]: the mortality at 500 g/ha in [1] and in assay [3] was 100% in each case. For the same compound, the pest or weed control at 1 µg/cm2, 100 g/ha in assay [2] and in assay [7] was 100% each time. The figures for the pest or weed control at 5 µg/cm2, 500 g/ha in assay [2], in assay [6] and in assay [7] were 100%, 80% and 100%, respectively. The mortality at 100 g/ha in [4] was found to be 100%. In assay [5], the pest or weed control at 6.4 µg/disc, 20 g/ha stood at 100%. Further, in [5], the pest or weed control at 32 µg/disc, 100 g/ha is 100%.
On to `CC(NC(=O)c1cc(Cl)cc(C(F)(F)F)c1)c1nccnc1-n1cc(C(=O)N(C)CC2CC2)cn1` (racemic) [Example I-132, (rac)-1-(3-{1-[3-Chloro-5-(trifluoromethyl)benzamido]ethyl}pyrazin-2-yl)-N-(cyclopropylmethyl)-N-methyl-1H-pyrazole-4-carboxamide], for which the mortality at 500 g/ha in assay [1] and in assay [3] was 100% each time. Also, the pest or weed control at 1 µg/cm2, 100 g/ha in [2], in [6] and in [7] was 100% in each case. Further, the pest or weed control at 5 µg/cm2, 500 g/ha in assay [2], in [6] and in assay [7] was 100% each time. In addition, the mortality at 100 g/ha in assay [4] is 100%. Also, in [5], the pest or weed control at 6.4 µg/disc, 20 g/ha turned out to be 100%. The pest or weed control at 32 µg/disc, 100 g/ha in assay [5] came to 100%.
In the case of `CC(NC(=O)c1cc(C(F)F)cc(C(F)F)c1)c1nccnc1-c1ncc(C(=O)N(C)CC2CC2)s1` (racemic) [Example I-141, (rac)-2-(3-{1-[3,5-Bis(difluoromethyl)benzamido]ethyl}pyrazin-2-yl)-N-(cyclopropylmethyl)-N-methyl-1,3-thiazole-5-carboxamide], the mortality at 500 g/ha in [1] and in assay [3] was 100% each time. In addition, the values for the pest or weed control at 5 µg/cm2, 500 g/ha in assay [2] and in [7] were 100% and 90%, respectively. The mortality at 100 g/ha in [4] was 100%. In addition, in assay [5], the pest or weed control at 32 µg/disc, 100 g/ha worked out at 100%. Moreover, in assay [7], the pest or weed control at 1 µg/cm2, 100 g/ha was 100%.
`CC(NC(=O)c1cc(Cl)cc(OC(F)(F)F)c1)c1nccnc1-c1nccs1` (racemic) [Example I-52, (rac)-3-Chloro-N-{1-[3-(1,3-thiazol-2-yl)pyrazin-2-yl]ethyl}-5-(trifluoromethoxy)benzamide]: the “nematicidal activity (based on gall formation)” value (shortened to “nematicidal activity”) in assay [8] was determined as 90%. In assay [5], the pest or weed control at 6.4 µg/disc, 20 g/ha was determined as 100% and the pest or weed control at 32 µg/disc, 100 g/ha was found to be 100%.
As to `CC(NC(=O)c1cc(Cl)cc(Br)c1)c1nccnc1-c1nccs1` (racemic) [Example I-54, (rac)-3-Bromo-5-chloro-N-{1-[3-(1,3-thiazol-2-yl)pyrazin-2-yl]ethyl}benzamide], the “nematicidal activity” value in assay [8] came to 90%. Further, the pest or weed control at 32 µg/disc, 100 g/ha in assay [5] was 100%. Further, the values for the pest or weed control at 5 µg/cm2, 500 g/ha in assay [6] and in [7] were 80% and 90%, respectively.
On to `CC(NC(=O)c1cc(C(F)(F)F)cc(C(F)(F)F)c1)c1nccnc1-c1ncc(C(=O)N(CC2CC2)C(C)C)s1` (racemic) [Example I-63, (rac)-2-(3-{1-[3,5-Bis(trifluoromethyl)benzamido]ethyl}pyrazin-2-yl)-N-(cyclopropylmethyl)-N-(propan-2-yl)-1,3-thiazole-5-carboxamide], for which the “nematicidal activity” value in assay [8] is given as 90%. Further, the pest or weed control at 0.004 mg in [9] was determined as 100%. In assay [4], this compound had a mortality at 100 g/ha of 100%. For the same compound, in assay [5], the pest or weed control at 6.4 µg/disc, 20 g/ha was 100% and the pest or weed control at 32 µg/disc, 100 g/ha came to 100%.
Regarding `CC(NC(=O)c1cc(Br)cc(OC(F)(F)F)c1)c1nccnc1-n1cc(C(=O)N(C)CC2CC2)cn1` (racemic) [Example I-134, (rac)-1-(3-{1-[3-Bromo-5-(trifluoromethoxy)benzamido]ethyl}pyrazin-2-yl)-N-(cyclopropylmethyl)-N-methyl-1H-pyrazole-4-carboxamide], the mortality at 500 g/ha in [1] and in assay [3] was 100% throughout. In addition, the results for the pest or weed control at 1 µg/cm2, 100 g/ha in [2], in assay [6] and in assay [7] were 80%, 100% and 100%, respectively. In addition, the pest or weed control at 5 µg/cm2, 500 g/ha in assay [2], in [6] and in [7] was 100% throughout. The mortality at 100 g/ha in assay [4] was determined as 100%. Further, the pest or weed control at 6.4 µg/disc, 20 g/ha in assay [5] is 100%. In addition, the pest or weed control at 32 µg/disc, 100 g/ha in assay [5] is 100%.
Compound `CC(NC(=O)c1cc(OC(F)(F)F)cc(S(C)(=O)=O)c1)c1nccnc1-c1ncc(C(=O)N(C)CC2CC2)s1` (racemic) [Example I-140, (rac)-N-(Cyclopropylmethyl)-2-(3-{1-[3-(methanesulfonyl)-5-(trifluoromethoxy)benzamido]ethyl}pyrazin-2-yl)-N-methyl-1,3-thiazole-5-carboxamide] registered a mortality at 500 g/ha in assay [1] of 100%. Also, in [2], the pest or weed control at 5 µg/cm2, 500 g/ha turned out to be 90%. In assay [4], the mortality at 100 g/ha is 100%.
As to `CC(NC(=O)c1cc(C(F)(F)F)cc(C(F)(F)F)c1)c1nccnc1-c1ncc(C#N)s1` (racemic) [Example I-82, (rac)-N-{1-[3-(5-Cyano-1,3-thiazol-2-yl)pyrazin-2-yl]ethyl}-3,5-bis(trifluoromethyl)benzamide], in assay [8], the “nematicidal activity” value turned out to be 100%. Moreover, in [2], the pest or weed control at 1 µg/cm2, 100 g/ha was 100% and the pest or weed control at 5 µg/cm2, 500 g/ha was 100%. In addition, the pest or weed control at 32 µg/disc, 100 g/ha in [5] was found to be 100%. Besides, in assay [7], the pest or weed control at 1 µg/cm2, 100 g/ha turned out to be 100% and the pest or weed control at 5 µg/cm2, 500 g/ha turned out to be 100%.
